Among the data in ChEMBL document CHEMBL3886955, “Pyrrolidine derivatives and their use as complement pathway modulators” (2016) are IC50 values, retold here.

This test addresses Complement factor D (Homo sapiens, UniProt P00746). The test can be described thus: In Vitro Assay: Method 1: Recombinant human factor D (expressed in E. coli and purified using standard methods) at 10 nM concentration is incubated with test compound at various concentrations for 1 hour at room temperature in 0.1 M Hepes buffer, pH 7.5, containing 1 mM MgCl2, 1 M NaCl and 0.05% CHAPS. A synthetic substrate Z-Lys-thiobenzyl and 2,4-dinitrobenzenesulfonyl-fluoresceine are added to final concentrations of 200 μM and 25 μM, respectively. The increase in fluorescence is recorded at excitation of 485 nm and emission at 535 nm in a microplate spectrofluorimeter. IC50 values are calculated from percentage of inhibition of complement factor D-activity as a function of test compound concentration.

Complement factor D, sequence (P00746 whole entry): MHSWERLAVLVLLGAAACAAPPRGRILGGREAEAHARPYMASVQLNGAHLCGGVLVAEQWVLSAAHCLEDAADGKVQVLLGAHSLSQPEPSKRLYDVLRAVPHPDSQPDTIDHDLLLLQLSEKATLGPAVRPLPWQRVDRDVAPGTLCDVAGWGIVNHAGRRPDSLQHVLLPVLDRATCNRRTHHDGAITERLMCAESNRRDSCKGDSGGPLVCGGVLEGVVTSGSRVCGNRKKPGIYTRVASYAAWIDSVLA

On to `CC(C)=C(F)CNC(=O)[C@@H]1C[C@H]2C[C@H]2N1C(=O)Nc1cn(C(N)=O)c2ccccc12`, for which the IC50 is 24 nM.
